In patent US6127339A, “Peptide for binding thereto a low density lipoprotein” (Asahi Kasei Kogyo Kabushiki Kaisha, priority 1995, dated 2000) one finds Stain data, which are given here for 28 substances.

The experiment concerns LDL. Description: Staining of peptide-bonded resin with biotinylated LDL in plasma (ABC method). The class given is binding. More on the design: key: the peptide-bonded resins which were stained are indicated with "+ (plus)"; the peptide-bonded resins which were not stained are indicated with "- (minus)". How it is done: With respect to the adsorbent comprising the water-insoluble carrier having bonded thereto the peptide, as a method for evaluating the binding ability (affinity) of the adsorbent for an LDL, there can be mentioned a method in which, after causing an LDL to be adsorbed on the adsorbent, the adsorbent having the LDL adsorbed thereon is subjected to staining (avidin-biotin complex method, that is, ABC method). Specifically, a biotinylated LDL is added to plasma, and the adsorbent is immersed in the plasma for a predetermined period of time. Then, the adsorbent is taken out of the plasma, and washed. Subsequently, the adsorbent is immersed in a horseradish peroxidase-labeled streptoavidin solution, and a solution of 3,3'-diamino benzidine, which is a substrate for the above-mentioned enzyme (horseradish peroxidase), is added thereto, thereby staining the adsorbent. The binding ability of the adsorbent for LDL is evaluated from the degree of the staining. With respect to methods for evaluating a binding ability for LDL, reference can be made to, for example, the following literature: S. M. Hsu, L. Raine, H. Fanger, J. Histchem. Cytochem., 29, 577 (1981); and H. Towbin, T. Staehelin, J. Gordon, Proc. Natl. Acad. Sci. U.S.A., 76, 4350 (1979).
The ability of each of the peptides to bind thereto an LDL was evaluated as follows. To a blood sample obtained from a healthy person was added a 3.8% aqueous solution of sodium citrate to thereby obtain a mixture. The obtained mixture was centrifuged to separate the blood sample into a blood cells component and a plasma component.
On the other hand, each of the above-mentioned polystyrene resins having bonded thereto the above-synthesized peptides was individually taken out from the synthesis reaction system and packed in a column having a filter (manufactured and sold by Bio-Rad laboratories, U.S.A.). Subsequently, the plasma-LDL mixture prepared above was added to the column, and the column was allowed to stand at room temperature for 1 hour. Then, the column was washed with a physiological saline containing 0.1% Tween 20 and sodium phosphate. After the washing, 1 ml of a horseradish peroxidase-labeled streptoavidine (0.2 ug/ml) solution containing 10% Block Ace (manufacturedand sold by Dainippon Pharmaceutical Co., Ltd., Japan) was added to the column, and the column was allowed to stand at room temperature for 30 minutes. Then, 1 ml of a 3,3'-diaminobenzidine tetrahydrochloride ([…]) solution containing 0.005% hydrogen peroxide was added to the column (by the addition of this solution, when a peptide-bonded resin contained in the column has the LDL bonded thereto, the resin is stained to assume brown color).
Results are shown in Table 1, wherein the peptide-bonded resins which were stained are indicated with "+ (plus)" and the peptide-bonded resins which were not stained are indicated with "- (minus)".
The ability of each of the peptides to bind thereto an LDL was evaluated in substantially the same manner as in Example 1.

[1] abbreviates: Table 2, peptide-bonded TG resin, same manner as Example 1.
[2] abbreviates: Table 1, peptide-bonded TG resin, room temperature 1 hour, peroxidase-streptoavidin/3,3'-diaminobenzidine.

No end group written: not given here.

On to “Example 2 Sample 3: pentapeptide N1-N5 = R W I L Q, bonded to TG polystyrene resin (RWILQ; not fully specified; printed as Arg Trp Ile Leu Gln)”, for which, under setting [1], the Stain result is given as “+”.

In the case of “Comparative Example 2 Sample 13: comparative pentapeptide N1-N5 = F N F E S, bonded to TG polystyrene resin (FNFES; not fully specified; printed as Phe Asn Phe Glu Ser) [reference compound]”, the Stain entry under setting [1] was “-”.

For “Comparative Example 2 Sample 9: comparative pentapeptide N1-N5 = E W S M T, bonded to TG polystyrene resin (EWSMT; not fully specified; printed as Glu Trp Ser Met Thr) [reference compound]”, under setting [1], the Stain result was “-”.

On to “Comparative Example 1 Sample 1: comparative pentapeptide N1-N5 = R A H I N, bonded to TG polystyrene resin (RAHIN; not fully specified; printed as Arg Ala His Ile Asn) [reference compound]”, for which the Stain result under setting [2] is “-”.

As for “Comparative Example 1 Sample 4: comparative pentapeptide N1-N5 = L T M K M, bonded to TG polystyrene resin (LTMKM; not fully specified; printed as Leu Thr Met Lys Met) [reference compound]”, the Stain entry under setting [2] is “-”.

For the substance “Comparative Example 2 Sample 4: comparative pentapeptide N1-N5 = P N A F A, bonded to TG polystyrene resin (PNAFA; not fully specified; printed as Pro Asn Ala Phe Ala) [reference compound]”, the Stain result under setting [1] is on record as “-”.

Take “Comparative Example 2 Sample 8: comparative pentapeptide N1-N5 = H A S N P, bonded to TG polystyrene resin (HASNP; not fully specified; printed as His Ala Ser Asn Pro) [reference compound]”: under setting [1], the Stain entry is on record as “-”.

As to “Example 2 Sample 1: pentapeptide N1-N5 = W T A R R, bonded to TG polystyrene resin (WTARR; not fully specified; printed as Trp Thr Ala Arg Arg)”, under setting [1], the Stain entry is on record as “+”.

For “Example 1 Sample 2: pentapeptide N1-N5 = F K I W W, bonded to TG polystyrene resin (FKIWW; not fully specified; printed as Phe Lys Ile Trp Trp)”, under setting [2], the Stain result is on record as “+”.

“Comparative Example 2 Sample 12: comparative pentapeptide N1-N5 = E A K H E, bonded to TG polystyrene resin (EAKHE; not fully specified; printed as Glu Ala Lys His Glu) [reference compound]”: the Stain result under setting [1] is listed as “-”.

In the case of “Comparative Example 2 Sample 2: comparative pentapeptide N1-N5 = H Y Y L Q, bonded to TG polystyrene resin (HYYLQ; not fully specified; printed as His Tyr Tyr Leu Gln) [reference compound]”, the Stain result under setting [1] is given as “-”.

Turning to “Example 2 Sample 12: pentapeptide N1-N5 = L N F R W, bonded to TG polystyrene resin (LNFRW; not fully specified; printed as Leu Asn Phe Arg Trp)”, the Stain entry under setting [1] is listed as “+”.

As for “Example 2 Sample 2: pentapeptide N1-N5 = F A Y R R, bonded to TG polystyrene resin (FAYRR; not fully specified; printed as Phe Ala Tyr Arg Arg)”, the Stain result under setting [1] was “+”.

Consider “Comparative Example 2 Sample 6: comparative pentapeptide N1-N5 = Y I Q V W, bonded to TG polystyrene resin (YIQVW; not fully specified; printed as Tyr Ile Gln Val Trp) [reference compound]”, for which, under setting [1], the Stain result is “-”.

“Comparative Example 2 Sample 3: comparative pentapeptide N1-N5 = W H V Q T, bonded to TG polystyrene resin (WHVQT; not fully specified; printed as Trp His Val Gln Thr) [reference compound]”: under setting [1], the Stain entry is “-”.

As for “Comparative Example 1 Sample 3: comparative pentapeptide N1-N5 = L H R H L, bonded to TG polystyrene resin (LHRHL; not fully specified; printed as Leu His Arg His Leu) [reference compound]”, the Stain result under setting [2] was “-”.

With “Comparative Example 2 Sample 11: comparative pentapeptide N1-N5 = W V D H N, bonded to TG polystyrene resin (WVDHN; not fully specified; printed as Trp Val Asp His Asn) [reference compound]”, the Stain entry under setting [1] is listed as “-”.

With “Example 2 Sample 13: pentapeptide N1-N5 = F L M R F, bonded to TG polystyrene resin (FLMRF; not fully specified; printed as Phe Leu Met Arg Phe)”, the Stain entry under setting [1] was “+”.

With “Example 1 Sample 5: pentapeptide N1-N5 = W A L Y R, bonded to TG polystyrene resin (WALYR; not fully specified; printed as Trp Ala Leu Tyr Arg)”, the Stain result under setting [2] is recorded as “+”.

Regarding “Comparative Example 2 Sample 7: comparative pentapeptide N1-N5 = F G A I V, bonded to TG polystyrene resin (FGAIV; not fully specified; printed as Phe Gly Ala Ile Val) [reference compound]”, the Stain entry under setting [1] was “-”.

On to “Example 2 Sample 6: pentapeptide N1-N5 = K H I Y W, bonded to TG polystyrene resin (KHIYW; not fully specified; printed as Lys His Ile Tyr Trp)”, for which the Stain result under setting [1] is listed as “+”.

“Example 1 Sample 3: pentapeptide N1-N5 = W Q R H F, bonded to TG polystyrene resin (WQRHF; not fully specified; printed as Trp Gln Arg His Phe)”: the Stain result under setting [2] is “+”.

Turning to “Comparative Example 2 Sample 5: comparative pentapeptide N1-N5 = H W V V H, bonded to TG polystyrene resin (HWVVH; not fully specified; printed as His Trp Val Val His) [reference compound]”, the Stain result under setting [1] was “-”.

Turning to “Example 2 Sample 5: pentapeptide N1-N5 = R Y A F W, bonded to TG polystyrene resin (RYAFW; not fully specified; printed as Arg Tyr Ala Phe Trp)”, the Stain result under setting [1] is reported as “+”.

As for “Comparative Example 2 Sample 14: comparative pentapeptide N1-N5 = V E E M E, bonded to TG polystyrene resin (VEEME; not fully specified) [reference compound]”, the Stain result under setting [1] was “-”.

As to “Example 2 Sample 4: pentapeptide N1-N5 = R F W L F, bonded to TG polystyrene resin (RFWLF; not fully specified; printed as Arg Phe Trp Leu Phe)”, the Stain entry under setting [1] is “+”.

As to “Comparative Example 1 Sample 2: comparative pentapeptide N1-N5 = P K S I N, bonded to TG polystyrene resin (PKSIN; not fully specified; printed as Pro Lys Ser Ile Asn) [reference compound]”, the Stain result under setting [2] is given as “-”.

For the substance “Example 1 Sample 4: pentapeptide N1-N5 = I F Y K W, bonded to TG polystyrene resin (IFYKW; not fully specified; printed as Ile Phe Tyr Lys Trp)”, under setting [2], the Stain result is given as “+”.
